molecular target: T1, cloned human H3 receptors (Homo sapiens, UniProt Q9Y5N1); assay: H3 Receptor Binding (Human); details: cloned human H3 receptors stably expressed in SK-N-MC cells; average of the results obtained
T1 construct: expressed in transfected cells; host or cells: SK-N-MC cells
Method: Binding of compounds to the cloned human H3 receptors, stably expressed in SK-N-MC cells, was performed as described by Barbier, A. J. et al. (Br. J. Pharmacol. 2004, 143(5), 649-661). Data for compounds tested in this assay are presented in Table 1 as an average of the results obtained.

T1 sequence (Q9Y5N1 whole entry): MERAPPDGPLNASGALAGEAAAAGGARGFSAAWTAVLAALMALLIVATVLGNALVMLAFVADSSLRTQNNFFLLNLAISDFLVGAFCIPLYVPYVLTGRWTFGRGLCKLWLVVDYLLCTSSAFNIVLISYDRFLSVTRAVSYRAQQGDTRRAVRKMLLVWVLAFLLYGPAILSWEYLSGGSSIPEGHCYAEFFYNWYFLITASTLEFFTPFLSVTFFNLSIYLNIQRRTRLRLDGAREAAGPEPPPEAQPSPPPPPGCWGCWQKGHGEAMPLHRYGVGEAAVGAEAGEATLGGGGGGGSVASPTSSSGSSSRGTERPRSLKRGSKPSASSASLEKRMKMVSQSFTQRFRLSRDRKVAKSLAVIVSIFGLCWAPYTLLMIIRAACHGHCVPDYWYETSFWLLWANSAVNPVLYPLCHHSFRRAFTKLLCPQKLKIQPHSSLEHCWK

Row | Ki [nM] | SMILES
1 | 24 | O=C(c1ccc2c(c1)CCN(C(=O)c1cccc(F)c1)C2)N1CCN(C2CCC2)CC1 [Example 62, (4-Cyclobutyl-piperazin-1-yl)-[2-(3-fluoro-benzoyl)-1,2,3,4-tetrahydro-isoquinolin-6-yl]-methanone]
2 | 100 | CC(C)(C)C(=O)N1CCc2cc(C(=O)N3CCN(C4CCCC4)CC3)ccc2C1 [Example 64, 1-[6-(4-Cyclopentyl-piperazine-1-carbonyl)-3,4-dihydro-1H-isoquinolin-2-yl]-2,2-dimethyl-propan-1-one]
3 | 100 | O=C(c1ccc2c(c1)CCN(C(=O)c1ccc(C3CCCCC3)cc1)C2)N1CCN(C2CCC2)CC1 [Example 132, (4-Cyclobutyl-piperazin-1-yl)-[2-(4-cyclohexyl-benzoyl)-1,2,3,4-tetrahydro-isoquinolin-6-yl]-methanone]
4 | 15 | O=C(c1ccc2c(c1)CCN(Cc1ccc(Cl)cc1)C2)N1CCN(C2CCC2)CC1 [Example 17, [2-(4-Chloro-benzyl)-1,2,3,4-tetrahydro-isoquinolin-6-yl]-(4-cyclobutyl-piperazin-1-yl)-methanone]
5 | 2 | CC(C)N1CCc2cc(C(=O)N3CCN4CCCCC4C3)ccc2C1 (stereo not shown) [Example 175, (2-Isopropyl-1,2,3,4-tetrahydro-isoquinolin-6-yl)-(octahydro-pyrido[1,2-a]pyrazin-2-yl)-methanone]
6 | 27 | Cc1ccc(C(=O)N2CCc3cc(C(=O)N4CCN(C5CCC5)CC4)ccc3C2)cc1F [Example 127, (4-Cyclobutyl-piperazin-1-yl)-[2-(3-fluoro-4-methyl-benzoyl)-1,2,3,4-tetrahydro-isoquinolin-6-yl]-methanone]
7 | 1800 | O=C(c1ccc2c(c1)CCN(C1CCC1)C2)N1CCOCC1 [Example 186, (2-Cyclobutyl-1,2,3,4-tetrahydro-isoquinolin-6-yl)-morpholin-4-yl-methanone]
8 | 23 | COc1ccccc1C(=O)N1CCc2cc(C(=O)N3CCN4CCCCC4C3)ccc2C1 (stereo not shown) [Example 92, [2-(2-Methoxy-benzoyl)-1,2,3,4-tetrahydro-isoquinolin-6-yl]-(octahydro-pyrido[1,2-a]pyrazin-2-yl)-methanone]
9 | 180 | CC(C)(C)c1ccc(C(=O)N2CCc3cc(C(=O)N4CCN(C5CCCCC5)CC4)ccc3C2)cc1 [Example 84, [2-(4-tert-Butyl-benzoyl)-1,2,3,4-tetrahydro-isoquinolin-6-yl]-(4-cyclohexyl-piperazin-1-yl)-methanone]
10 | 9 | Cc1ccccc1C(=O)N1CCc2cc(C(=O)N3CCC[C@H]3CN3CCCC3)ccc2C1 [Example 54, (S)-[6-(2-Pyrrolidin-1-ylmethyl-pyrrolidine-1-carbonyl)-3,4-dihydro-1H-isoquinolin-2-yl]-o-tolyl-methanone]
11 | 80 | O=C(c1ccc2c(c1)CCN(C(=O)c1ccccc1F)C2)N1CCN(C2CCCCC2)CC1 [Example 72, (4-Cyclohexyl-piperazin-1-yl)-[2-(2-fluoro-benzoyl)-1,2,3,4-tetrahydro-isoquinolin-6-yl]-methanone]
12 | 2200 | O=C(c1ccc2c(c1)CCN(C1CCCC1)C2)N1CCCCC1 [Example 191, (2-Cyclopentyl-1,2,3,4-tetrahydro-isoquinolin-6-yl)-piperidin-1-yl-methanone]
13 | 2700 | CC(C)(O)C1CCN(C(=O)c2ccc3c(c2)CCN(C2CCCC2)C3)CC1 [Example 194, (2-Cyclopentyl-1,2,3,4-tetrahydro-isoquinolin-6-yl)-[4-(1-hydroxy-1-methyl-ethyl)-piperidin-1-yl]-methanone]
14 | 250 | CC(C)N1CCc2cc(C(=O)N3CCC(C(C)(C)C)CC3)ccc2C1 [Example 176, (4-tert-Butyl-piperidin-1-yl)-(2-isopropyl-1,2,3,4-tetrahydro-isoquinolin-6-yl)-methanone]
15 | 48 | O=C(Cc1ccc(F)cc1)N1CCc2cc(C(=O)N3CCN(C4CCCC4)CC3)ccc2C1 [Example 71, 1-[6-(4-Cyclopentyl-piperazine-1-carbonyl)-3,4-dihydro-1H-isoquinolin-2-yl]-2-(4-fluoro-phenyl)-ethanone]
16 | 13 | CN(C)c1ccc(C(=O)N2CCc3cc(C(=O)N4CCN(C5CCC5)CC4)ccc3C2)cc1 [Example 117, [6-(4-Cyclobutyl-piperazine-1-carbonyl)-3,4-dihydro-1H-isoquinolin-2-yl]-(4-dimethylamino-phenyl)-methanone]
17 | 23 | O=C(c1ccccc1F)N1CCc2cc(C(=O)N3CCC[C@H]3CN3CCCC3)ccc2C1 [Example 56, (S)-(2-Fluoro-phenyl)-[6-(2-Pyrrolidin-1-ylmethyl-pyrrolidine-1-carbonyl)-3,4-dihydro-1H-isoquinolin-2-yl]-methanone]
18 | 53 | O=C(c1ccc2c(c1)CCN(C(=O)c1ccc(F)cc1)C2)N1CCN(C2CCCC2)CC1 [Example 67, (4-Cyclopentyl-piperazin-1-yl)-[2-(4-fluoro-benzoyl)-1,2,3,4-tetrahydro-isoquinolin-6-yl]-methanone]

Row | Ki [nM] | SMILES
19 | 24 | CC(C)N1CCN(C(=O)c2ccc3c(c2)CCN(C(=O)c2ccc(Cl)c(Cl)c2)C3)CC1 [Example 111, [2-(3,4-Dichloro-benzoyl)-1,2,3,4-tetrahydro-isoquinolin-6-yl]-(4-isopropyl-piperazin-1-yl)-methanone]
20 | 24 | O=C(c1ccc(F)cc1)N1CCc2cc(C(=O)N3CCN4CCCCC4C3)ccc2C1 (stereo not shown) [Example 88, [2-(4-Fluoro-benzoyl)-1,2,3,4-tetrahydro-isoquinolin-6-yl]-(octahydro-pyrido[1,2-a]pyrazin-2-yl)-methanone]
21 | 43 | O=C(c1ccc2c(c1)CCN(C(=O)c1ccccc1F)C2)N1CCN(C2CCCC2)CC1 [Example 66, (4-Cyclopentyl-piperazin-1-yl)-[2-(2-fluoro-benzoyl)-1,2,3,4-tetrahydro-isoquinolin-6-yl]-methanone]
22 | 23 | O=C(c1cccc(F)c1)N1CCc2cc(C(=O)N3CCN4CCCCC4C3)ccc2C1 (stereo not shown) [Example 87, [2-(3-Fluoro-benzoyl)-1,2,3,4-tetrahydro-isoquinolin-6-yl]-(octahydro-pyrido[1,2-a]pyrazin-2-yl)-methanone]
23 | 12 | O=C(c1ccccc1Cl)N1CCc2cc(C(=O)N3CCC[C@H]3CN3CCCC3)ccc2C1 [Example 50, (S)-(2-Chloro-phenyl)-[6-(2-pyrrolidin-1-ylmethyl-pyrrolidine-1-carbonyl)-3,4-dihydro-1H-isoquinolin-2-yl]-methanone]
24 | 20 | O=C(CC1CCCC1)N1CCc2cc(C(=O)N3CCN(C4CCC4)CC3)ccc2C1 [Example 43, 1-[6-(4-Cyclobutyl-piperazine-1-carbonyl)-3,4-dihydro-1H-isoquinolin-2-yl]-2-cyclopentyl-ethanone]
25 | 28 | COc1ccc(C(=O)N2CCc3cc(C(=O)N4CCN(C(C)C)CC4)ccc3C2)cc1 [Example 108, (4-Isopropyl-piperazin-1-yl)-[2-(4-methoxy-benzoyl)-1,2,3,4-tetrahydro-isoquinolin-6-yl]-methanone]
26 | 1 | O=C(c1ccc2c(c1)CCN(C(=O)c1ccc(F)c(O)c1)C2)N1CCCN(C2CCC2)CC1 [Example 141, [6-(4-Cyclobutyl-[1,4]diazepane-1-carbonyl)-3,4-dihydro-1H-isoquinolin-2-yl]-(4-fluoro-3-hydroxy-phenyl)-methanone]
27 | > 10000 | O=C(c1ccc2c(c1)CCN(Cc1ccccc1)C2)N1CCOCC1 [Example 13, (2-Benzyl-1,2,3,4-tetrahydro-isoquinolin-6-yl)-morpholin-4-yl-methanone]
28 | 77 | O=C(c1ccc2c(c1)CCN(C(=O)c1ccccc1Cl)C2)N1CCN(C2CCCCC2)CC1 [Example 75, [2-(2-Chloro-benzoyl)-1,2,3,4-tetrahydro-isoquinolin-6-yl]-(4-cyclohexyl-piperazin-1-yl)-methanone]
29 | 4200 | CCCN1CCc2cc(C(=O)N3CCC(C(C)(C)O)CC3)ccc2C1 [Example 184, [4-(1-Hydroxy-1-methyl-ethyl)-piperidin-1-yl]-(2-Propyl-1,2,3,4-tetrahydro-isoquinolin-6-yl)-methanone]
30 | 25 | CC(C)S(=O)(=O)N1CCc2cc(C(=O)N3CCN(C4CCC4)CC3)ccc2C1 [Example 102, (4-Cyclobutyl-piperazin-1-yl)-[2-(propane-2-sulfonyl)-1,2,3,4-tetrahydro-isoquinolin-6-yl]-methanone]
31 | 2100 | O=C(c1ccc2c(c1)CCN(C1CCC1)C2)N1CCCCC1 [Example 185, (2-Cyclobutyl-1,2,3,4-tetrahydro-isoquinolin-6-yl)-piperidin-1-yl-methanone]
32 | 36 | CC(=O)N1CCc2cc(C(=O)N3CCN(C4CCC4)CC3)ccc2C1 [Example 30, 1-[6-(4-Cyclobutyl-piperazine-1-carbonyl)-3,4-dihydro-1H-isoquinolin-2-yl]-ethanone]
33 | 34 | CCCS(=O)(=O)N1CCc2cc(C(=O)N3CCN(C4CCC4)CC3)ccc2C1 [Example 101, (4-Cyclobutyl-piperazin-1-yl)-[2-(propane-1-sulfonyl)-1,2,3,4-tetrahydro-isoquinolin-6-yl]-methanone]
34 | 37 | O=C(c1ccc2c(c1)CCN(C(=O)C1CCCCC1)C2)N1CCN(C2CCCC2)CC1 [Example 159, Cyclohexyl-[6-(4-cyclopentyl-piperazine-1-carbonyl)-3,4-dihydro-1H-isoquinolin-2-yl]-methanone]
35 | 16 | CC(C)N1CCN(C(=O)c2ccc3c(c2)CCN(C(=O)c2ccccc2)C3)CC1 [Example 28, (2-Benzoyl-1,2,3,4-tetrahydro-isoquinolin-6-yl)-(4-isopropyl-piperazin-1-yl)-methanone]
36 | 54 | O=C(c1ccc2c(c1)CCN(C(=O)C1CCCCC1)C2)N1CCN2CCCC2C1 (stereo not shown) [Example 153, Cyclohexyl-[6-(hexahydro-pyrrolo[1,2-a]pyrazine-2-carbonyl)-3,4-dihydro-1H-isoquinolin-2-yl]-methanone]

Row | SMILES | Ki [nM]
37 | CC(C)N1CCc2cc(C(=O)N3CCOCC3)ccc2C1 [Example 174, (2-Isopropyl-1,2,3,4-tetrahydro-isoquinolin-6-yl)-morpholin-4-yl-methanone] | 2140
